Entries after “also recorded” stand apart in the source; their conditions may differ.
How the values were obtained:
SURE CHO-M cell line [1] = test: Cell cycle analysis of CHO cells by propidium iodide DNA content flow cytometry; format: cell-based, Chinese hamster; conditions: overnight in medium; DMSO 1%, APH 1 μM, MTX 1 uM, NOCO 1.5 μM
Procedure: SURE CHO-M cell™ line (SELEXIS SA, Switzerland, see: U.S. Pat. Nos. 7,129,062, 8,252,917 and 9,879,297, and U.S. Patent Applications No. 20110061117 and 20120231449, the disclosures of which are incorporated herein by reference in their entirety) were cultivated overnight in asynchronous condition (FIG. 1A) or in presence of DMSO 1%, aphidicholin (APH) 1 μM, methotrexate (MTX) 1 uM or nocodazole (NOCO) 1.5 μM (FIG. 1B). Cells were then fixed in ethanol and labelled overnight at 4° C. with propidium iodide (PI; 50 μg/ml, Sigma) in presence of RNAse (0.5 μg/ml, Sigma). DNA content index histograms were acquired on Guava EasyCyte System® using INCYTE acquisition software. Each phase of cell cycle was defined according to the drug treatment as G1 arrest (DMSO); S phase (APH); G2 (NOCO). The % of G0/G1, % of S and % of G2/M arrested cells were then calculated (see Table FIG. 1B).
Cell cycle was analyzed by flow cytometry at release (18 h with drug) and at 1, 2, 4, 6 and 8 h after release. Released cells were then further cultivated according to the indicated time points. Asynchronous (control) cells were included as controls. DNA content index histograms were acquired on Guava EasyCyte System® (MILLIPORE) using INCYTE acquisition software.

SURE CHO-M cells [2] = test: Cell synchronization combined with DNA repair pathway modulators: CSA of trastuzumab IgG-producing cells; format: cell-based, Chinese hamster; conditions: for proportion of high-expressing cells: immediately after transfection, in combination with S and G2 arrest
Procedure: Freshly transfected cells were incubated in presence of various NHEJ, HR, MMEJ or SSA modulators immediately after electroporation to identify the DNA repair pathway involved in transgene integration and depending on the targeted cell cycle phase.

SURE CHO-M cells [3] = test: Cell synchronization with plasmid or CRISPR/Cas-mediated transgene integration: fed-batch PCD; parameters: species or system Chinese hamster; conditions: G1 synchronization, DMSO 1% overnight, plasmid-based and CRISPR/Cas9-mediated expression system
Procedure: Asynchronous and synchronized cells were transfected with IgG-trastuzumab expressing vectors and cultivated under antibiotic selection for 10 days.
Stable expressing pools were subcultivated in complete culture medium for 4 subsequent passages in spin tubes (5 ml wv) (FIG. 4B). Cell density (Cv·ml^−1) and IgG titer values (μg·ml^−1) were determined. […] Growth and performance of each stable established IgG-expressing pool was then evaluated in spin tube in a 9-day fedbatch process using Acto CHO A+B feed (GE Healthcare). Fed-batch cultures were initiated at cell concentrations of 0.3×10^6 cells/ml in 5 mL working volume run. (FIG. 4C). The specific IgG productivity was determined as the slope of IgG concentration versus the integral number of viable cells (IVCD) and expressed as pg per cell and per day (pcd). Histograms represented the fold change of productivity per cell per day (PCD) obtained for DMSO and 4° C. pre-treatment compared to their respective untreated-controls cells.

SURE CHO-M cell line [4] = test: eGFP expression after transfection of synchronized CHO cells (cytometer imager); format: cell-based, Chinese hamster; conditions: day 2 and day 11 after transfection; synchronized prior to transfection vs non-synchronized cells
Procedure: (§1) Asynchronous and synchronized SURE CHO-M cell™ lines (SELEXIS SA, Switzerland) were transfected with eGFP- (FIG. 1E) or Trastuzumab IgG-expression SLX-vectors (FIG. 1F and FIG. 1G) immediately after drugs release. Transfection was done by microporation (NEON TRANSFECTION SYSTEM, INVITROGEN), generating a heterogeneous pool of transfected cells. 24 h after transfection, 5 ug/ml puromycin selection agent (GIBCO) was added to the BalanCD medium (IRVINE) supplemented with 6 mM L-Glutamine (HYCLONE). Expression pools performances were then evaluated for GFP or IgG at different time points after transfection. The percentage and GFP fluorescence mean intensity (FMI) level were evaluated on cytometer imager at d2 and d11 post-transfection (CELIGO S; NEXCELOM). Results were represented as fold change of control cells (FIG. 1E; histograms).

SURE CHO-M cells [5] = test: Cell recovery during antibiotic selection after synchronization and DNA repair modulation; conditions: S- and G2-synchronized cells, with DNA repair pathways inhibition
Procedure: SURE CHO-M cells™ (SELEXIS SA, Switzerland) were synchronized overnight with DMSO 1%, aphidicolin (APH) 1 μM, methotrexate (MTX) 1 μM or nocodazole (NOCO) 1.5 μM. After 18 hrs of incubation, cells were centrifuged, rinse twice into PBS 1× and resuspended in complete culture medium. Asynchronous and synchronized cells were transfected with trastuzumab IgG-plasmid expressing vector. Freshly transfected cells were then immediately resuspended and incubated overnight in presence of NU7441, RI-1, RS-1 or Olaparib small molecules (drugs provided by TOCRIS, CALBIOCHEM or APEXBIO TECHNOLOGY) before to change medium and start antibiotic selection.
Cell recovery behavior during antibiotic selection was monitored for each transfection condition and recorded as + or − signs.

SURE CHO-M cell line [6] = test: Cell Secretion Assay (CSA) of Trastuzumab IgG-producing cells after synchronization; format: cell-based, Chinese hamster; conditions: 2 days post-transfection; vs asynchronized cells
Procedure: as §1
The percentage and secretion mean intensity (SMI) of IgG-producing cells were determined at d2 (FIG. 1F) and d10 (FIG. 1G) post-transfection using Cell Secretion Assay methods (CSA).

SURE CHO-M cells [7] = test: IgG transfection in presence of Sbf1 restriction enzyme and NU7441: CSA of stable cells; format: cell-based, Chinese hamster; conditions: Sbf1 present
Procedure: Asynchronized (AS) or G1-synchronized (G1) SURE CHO-M cells' (SELEXIS SA, Switzerland) were transfected with trastuzumab IgG-expressing vector in presence of Sbf1 restriction enzyme. Transfected cells were incubated overnight in presence of the NHEJ inhibitor—NU7441 ([…])—before change of medium and start antibiotic selection. The histograms show cell secretion assay (CSA) as percentage (white bar) and secretion mean intensity (SMI) (grey bar) of total producing cells (FIG. 6A) or of the high-, medium- and low-producing subpopulations (FIG. 6B) performed on stable trastuzumab-expressing cells.

SURE CHO-M cells [8] = test: Nu7441 treatment before transfection: productivity in 9-day fedbatch (ELISA titer, PCD); format: cell-based, Chinese hamster; conditions: 0.4 μM just before transfection
Procedure: SURE CHO-M cells™ (SELEXIS SA, Switzerland) were treated with 0.4 μM of DNA-PK inhibitor Nu7441 (TOCRIS) just before transfection of 3 μg of the antibody DNA fragment, respectively Trastuzumab (Tras) or Adalimumab (ADA). Transfection was done by microporation (Neon Transfection system, Invitrogen). 24 h after transfection, 5 μg/ml puromycin selection agent (Gibco) was added.
Growth and performance of the 6 top clones of each enzymatic condition were evaluated in spin tube in a 9-day fedbatch process using Acto CHO A+B feed (GE Healthcare). Fed-batch cultures were initiated at cell concentrations of 0.3×10^6 cells/ml in 5 mL working volume run. Cell density and cell viability along the process were evaluated by using a Guava System (Millipore) and supernatant sample was collected. Antibody product titer was evaluated by ELISA capture assay against the collected supernatant, at day 9 of the fedbatch process. Productivity per cell per day (PCD) was calculated as function of titer and viable cell density during the fedbatch process.

[9] = after 10 days of antibiotic selection, NU7441 0.4 mM overnight, AS_NU and G1_NU vs AS and G1

With `C[C@@]1(CO)[C@H](O)CC[C@@]2(C)[C@H]1CC[C@H]1C[C@@H]3C[C@@]12CC[C@]3(O)CO` [APH, aphidicolin] the “cell cycle phase at which cells are arrested” value (“cell cycle phase” below) (SURE CHO-M cell line [1]) was “S phase”.

With `C[S+](C)[O-]` [DMSO, dimethyl sulfoxide] the “cell cycle phase” value (SURE CHO-M cell line [1]) was “G1 arrest; also recorded: G1 phase”, the “high-producing subpopulation (% HP) of stable IgG-producing cells” value (SURE CHO-M cells [2]; after 10 days of antibiotic selection, G1-synchronized, with or without DNA repair modulators, vs asynchronous controls) was “increase” and the “productivity (fold change of PCD vs untreated control cells)” value (SURE CHO-M cells [3]) was “significant increase”.

For `CN(Cc1cnc2nc(N)nc(N)c2n1)c1ccc(C(=O)N[C@@H](CCC(=O)O)C(=O)O)cc1` [MTX, methotrexate], the “mean intensity of GFP-expressing cells” value (SURE CHO-M cell line [4]) was “higher”, the “percentage of GFP-expressing cells” value (SURE CHO-M cell line [4]) was “higher” and the “cell cycle phase” value (SURE CHO-M cell line [1]) was “G1/S phase”. For the same compound, the “cytotoxic effect (cells failed to pass the antibiotic selection)” value (SURE CHO-M cells [5]) was “lethal cytotoxic effect”, the “% of Trastuzumab-expressing cells” value (SURE CHO-M cell line [6]) was “higher” and the “mean intensity of Trastuzumab-expressing cells” value (SURE CHO-M cell line [6]) was “higher”.

With `COC(=O)Nc1nc2ccc(C(=O)c3cccs3)cc2[nH]1` [NOCO, nocodazole] the “mean intensity of GFP-expressing cells” value (SURE CHO-M cell line [4]) was “higher”, the “percentage of GFP-expressing cells” value (SURE CHO-M cell line [4]) was “higher” and the “cytotoxic effect (cells failed to pass the antibiotic selection)” value (SURE CHO-M cells [5]) was “lethal cytotoxic effect”. The “% of Trastuzumab-expressing cells” value (SURE CHO-M cell line [6]) was “higher” and the “mean intensity of Trastuzumab-expressing cells” value (SURE CHO-M cell line [6]) was “higher”.

With `O=c1cc(N2CCOCC2)oc2c(-c3cccc4c3sc3ccccc34)cccc12` [Nu7441] the “proportion of high-expressing cells” value (SURE CHO-M cells [2]) was “higher”, the “high- and medium-producing cells subpopulations” value (SURE CHO-M cells [7]; G1 phase synchronized and Nu7441 treated, after 10 days selection) was “significant increase” and the “mean intensity of IgG-expressing cells” value (SURE CHO-M cells [7]; [9]) was “higher”. For the same compound, the “percentage of IgG-expressing cells” value (SURE CHO-M cells [7]; [9]) was “higher”, the “proportion of IgG-producing cells” value (SURE CHO-M cells [7]; combination with G1 phase synchronization (G1_NU compared to AS)) was “best” and the “productivity per cell per day (PCD)” value (SURE CHO-M cells [8]; Trastuzumab) was “clear increased”. For the same compound, the “productivity per cell per day (PCD)” value (SURE CHO-M cells [8]; adalimumab) was “less evident” and the “productivity (antibody product titer)” value (SURE CHO-M cells [8]; both antibody molecules (Trastuzumab, Adalimumab)) was “increase”.

With `O=C(c1cc(Cc2n[nH]c(=O)c3ccccc23)ccc1F)N1CCN(C(=O)C2CC2)CC1` [Olaparib] the “proportion of high-expressing cells” value (SURE CHO-M cells [2]) was “higher”.

`O=C1C(Cl)=C(N2CCOCC2)C(=O)N1c1ccc(Cl)c(Cl)c1` [RI-1] was tested, and the “proportion of high-expressing cells” value (SURE CHO-M cells [2]) was “higher”.
